Laboratory results published in PubChem BioAssay AID1626 (SRMLSC, 2009).

System: M. tuberculosis H37Rv growth inhibition
Test: M. tuberculosis H37Rv growth inhibitors, H37Rv strain (AID 1626)
Conditions: for IC90: measured here: IC90 against H37Rv; for CC50: measured here: Vero cell cytotoxicity

Row | Compound | IC50 [µM] | IC90 [µM] | CC50 [µM]
1 | Nc1c(C(=O)NC2CCCCC2)nsc1C(=O)OCC(=O)NC1CCCCC1 | 2.04 | > 100 | > 40
2 | CCOc1ccc(N2CCc3c(C)nc(SC)nc32)cc1 | < 0.195 | 40.3 | 27.1
3 | Nc1ccc2c(c1)Cc1ccccc1-2 | 18.3 | > 100 | 
4 | COc1ccc(OCCn2c(NC(=O)c3ccco3)nc3ccccc32)cc1 |  | > 100 | 33.2
5 | COc1ccc(NS(=O)(=O)c2cc(NC(=O)[C@@H](NC(=O)c3ccccc3)C(C)C)ccc2C)cc1 |  |  | 23.3
6 | CCCCNC(=O)Nc1nnc(-c2ccc(Cl)cc2)o1 | 1.33 | 3.59 | 
7 | CCN1CCN(c2cc3c(cc2F)c(=O)c(C(=O)O)cn3C2CC2)CC1 | < 0.391 | < 0.391 | 
8 | Cc1ccc(C)c(N=Nc2nc3ccccc3n2C)c1 | 1.33 | 1.7 | > 40
9 | CN(C)c1ccc(O)c2c1CC1CC3[C@@H](N(C)C)C(=O)C(C(N)=O)=C(O)[C@]3(O)C(=O)C1=C2O (stereo partly specified) | 3.14 | 7.87 | > 40
10 | COc1cc(NS(=O)(=O)c2ccc(N)cc2)ncn1 | 6.02 | 12.2 | 
11 | O=C(NCc1ccco1)c1cc([N+](=O)[O-])cc([N+](=O)[O-])c1 | 1.46 | 1.65 | 
12 | Cc1cc(C(=O)c2ccc(C(C)(C)C)cc2)c(NC(=O)CCl)s1 | 19.5 | > 100 | 27.2
13 | CCCCCc1cc(=O)oc2c(C(CCN3CCCC3)c3ccc(N(C)C)cc3)c(OC)cc(OC)c12 (stereo unspecified) | 4.38 | 6.04 | 14
14 | Cc1c(C(=O)N2CCCCC2)sc(NC(=O)C23CC4CC(CC(C4)C2)C3)c1C#N | 40.8 | > 100 | 
15 | Cc1cc(=O)oc2cc(Oc3ncccc3[N+](=O)[O-])ccc12 | 9.46 | > 100 | 
16 | CCOC(=O)c1sc(NC(=O)CSc2ncn[nH]2)c(C#N)c1C |  |  | > 40
17 | Cc1ccc(C(=O)Nc2nc(-c3ccccn3)cs2)o1 | 2.56 | 6.19 | > 40
18 | Cc1cccc(NC(=O)c2nc[nH]c2C(=O)N[C@@H](CC(C)C)C(=O)OCc2ccccc2)c1 | 23 | > 100 | 39.1
19 | COc1ccc(N2CCN(c3nc(NC(C)(C)C)nc(N4CCCCC4)n3)CC2)cc1 | 3.75 | 5.86 | > 40
20 | O=C(Nc1nc(-c2ccccn2)cs1)c1ncc(Cl)c(Cl)c1Cl | 1.45 | 5.3 | 31.7
21 | c1ccc(-c2cc3c(NCC4COc5ccccc5O4)ncnc3s2)cc1 (stereo unspecified) |  | > 100 | > 40

Row | Compound | IC50 [µM] | IC90 [µM] | CC50 [µM]
22 | CCOC(=O)c1ccc(N2CN=C3SCC(=O)N3C2)cc1 | 11.9 | > 100 | 
23 | CC(C)(C)c1ccc(C(=O)CC(=O)c2cc(Cl)ccc2O)cc1 | 2.67 | 3.14 | 12.4
24 | Clc1ccc(-c2ccc(C=Nc3ccc(N4CCOCC4)cc3)o2)cc1 | 7.5 | > 100 | 
25 | Cc1ccc(C)c(-c2cc(C(=O)Nc3nccs3)c3ccccc3n2)c1 | 8.18 | 11.3 | 
26 | CCOc1ccc2nc(NC(=O)CSC3=NCCS3)sc2c1 |  | > 100 | 
27 | CCOC(=O)c1cnc(Nc2nc3ccccc3o2)nc1C | 20.4 | > 100 | 22.5
28 | N#CCC1c2ccccc2CCN1C(=O)Nc1ccc(C(F)(F)F)cc1 (stereo unspecified) | 5.9 | > 100 | 
29 | CN1c2ccc([N+](=O)[O-])cc2CC2(C(=O)NC(=O)N(c3ccc(Br)cc3)C2=O)C1c1ccccc1 (stereo unspecified) | 0.964 | > 100 | > 40
30 | O=S(=O)(Nc1ccn(-c2ccccc2)n1)c1ccc(Br)cc1 | 30.1 | > 100 | 
31 | COc1ccc(NC(=O)CN(C)CC(=O)Nc2cccc(F)c2)cc1Cl | 32 | > 100 | 
32 | O=[N+]([O-])c1cc(Cl)c(O)c2ncccc12 | 16.3 | 24.7 | 21.7
33 | CCOC(=O)c1cn[nH]c1N |  | > 100 | 
34 | O=C(Nc1nccs1)c1cc2c(s1)CCCCC2 | 5.64 | 25 | > 40
35 | CC(C)CCN1C(=O)c2ccc(-c3nc4ccccc4c(=O)o3)cc2C1=O | 5.26 | > 100 | 
36 | OCCN1CCN(CC(O)COc2ccc(C34CC5CC(CC(C5)C3)C4)cc2)CC1 (stereo unspecified) | 9.56 | 15.2 | 9.85
37 | Cc1ccc2c(c1)c1c(n2CC(O)CNC2CCCCC2)CCCC1 (stereo unspecified) | 6.83 | 10.2 | 15.1
38 | CCCCC(=O)OCC(=O)Nc1ccc(SC(F)F)cc1 |  | > 100 | 
39 | Cc1nn(-c2ccccc2)c(C)c1C(=O)Nc1nnc(-c2ccco2)o1 | 13.5 | > 100 | 38.5
40 | O=C(COC(=O)c1cccs1)c1ccc2c(c1)OCCO2 | 8.66 | 19.2 | 
41 | N#Cc1nc(-c2cccs2)oc1NCCc1ccccc1 | 1.97 | 5.43 | 
42 | COC(=O)c1cc(NC(=O)N2c3ccccc3Sc3ccccc32)cc(C(=O)OC)c1 |  |  | > 40

Row | Compound | IC50 [µM] | IC90 [µM] | CC50 [µM]
43 | CCCSC1=C(C#N)C(c2cccs2)C(C(=O)Nc2ccccc2)=C(C)N1 (stereo unspecified) | 7.77 | 68.2 | > 40
44 | O=C(CSCc1ccc(Cl)cc1)Nc1ccc(-c2nnc(-c3ccccc3)o2)cc1 |  |  | 6.18
45 | CC1(C)CC(NC(=O)c2sc3cc(Cl)ccc3c2Cl)CC(C)(C)N1 |  | > 100 | 12.6
46 | O=C(Nc1cc(Oc2ccccc2)cc([N+](=O)[O-])c1)C12CC3CC(C1)CC(n1cnc(Cl)n1)(C3)C2 | 4.19 | > 100 | > 40
47 | C/C(=C\C(=O)c1ccc(C)o1)Nc1ccc2c(c1)OCO2 |  | > 100 | 
48 | Cc1ccc(Sc2ccc(C=C3C(=O)N(C)C(=O)N(C)C3=O)o2)cc1 | 7.56 | 20.8 | 
49 | CN1CCN(C2=Cc3ccccc3Sc3cc(F)c(Cl)cc32)CC1 | 11.6 | 13.2 | 36.4
50 | Nc1nc(CCl)nc(Nc2ccccc2)n1 | 31.2 | > 100 | 3.32
51 | COc1ccc(N=Cc2ccc[nH]2)cc1 |  | > 100 | 
52 | Cc1ccc(NC(=O)c2ccc([N+](=O)[O-])o2)cc1C | < 0.195 | 8.63 | > 40
53 | O=C(CCl)N(c1ccccc1)c1ccccc1 | 5.73 | 17.6 | 1.69
54 | COc1ccc(OCc2nn3c(-c4cccc(OC)c4)nnc3s2)cc1 |  | > 100 | 
55 | O=C(Nc1ccc(Nc2ccncc2)cc1)c1ccc(Nc2ccnc3ccc([N+](=O)[O-])cc23)cc1[N+](=O)[O-] | 1.39 | 1.57 | > 40
56 | CC(C)c1ccc(NC(=O)c2snc3ccc(Cl)cc23)cc1 | 3.89 | > 100 | > 40
57 | Clc1ccc(-[n+]2c(-c3cccc(Br)c3)[nH]c3nc4ccccc4nc32)cc1 |  | > 100 | > 40
58 | CCCn1c(NC(=O)c2ccccc2)nc2ccccc21 | 3.89 | > 100 | > 40
59 | CCN1CCN(c2cc(-c3ccccc3)nc3cc(-c4cccc(F)c4)nn23)CC1 | 8.07 | 12.9 | 39.2
60 | O=C(Nc1nnc(-c2ccc(Cl)s2)o1)C1CCCCC1 | 3.84 | > 100 | > 40
61 | COc1ccc(OC(=O)CCc2c[nH]c3ccccc23)cc1 | 18.2 | > 100 | 
62 | COC(=O)c1cc(-c2ccc(OC)c(OC)c2)on1 | < 0.391 | > 100 | 
63 | CC(C)(C)c1ccccc1OCCOCCN1CCCCCC1 | 57.8 | > 100 | 

Row | Compound | IC50 [µM] | IC90 [µM] | CC50 [µM]
64 | COc1cc(OC)c2cc[nH]c2c1 |  | > 100 | 
65 | CCOC(=O)COc1cc2c3c(c(=O)oc2cc1C)CCCC3 | 1.59 | 10.4 | 
66 | Cn1nc(C(F)(F)F)c(-c2ccc(Br)cc2)c1NC(=O)c1cccnc1 |  | > 100 | > 40
67 | CCN1CCN(Cc2ccc(NC(=O)c3cc(NC(=O)c4cncc(-c5ccc(C#N)cc5)c4)cc(OC)c3)cc2C(F)(F)F)CC1 | 4.55 | 6.7 | 5.63
68 | Cc1nc(SCC(=O)Nc2ccc(OCc3ccccc3)cc2)n[nH]1 | 0.406 | > 100 | 
69 | O=Cc1ccc2oc3nc4n(c(=O)c3c(=O)c2c1)CCCS4 | 0.441 | 1.24 | 
70 | CCCCCc1cc(=O)oc2c(C(CCN3CCCCC3)c3cc(OC)c(OC)c(OC)c3)c(OC)cc(OC)c12 (stereo unspecified) | 4.18 | 5.62 | 13.7
71 | CCOc1ccc(NC(=O)c2ccccc2CO)cc1 | 9.45 | > 100 | 
72 | Cc1cccc(CN2CCCC(C(=O)c3cccc(OC(C)C)c3)C2)n1 (stereo unspecified) | 12.3 | > 100 | > 40
73 | Cc1ccc(-n2c(C)nc3c(cnn3-c3ccc(C)c(C)c3)c2=O)cc1C |  |  | > 40
74 | COC(=O)CSc1ccc(-c2nc3ccc(C)cc3[nH]2)cn1 | 1.95 | 3.39 | 
75 | O=C(c1coc2ccc(O)cc12)C1CC1 | 27.5 | > 100 | 
76 | Cc1c(C(=O)Oc2cccc3cccnc23)oc2ccccc12 | 3.04 | 3.29 | 34.6
77 | CNc1nc(-c2ccccn2)nnc1-c1ccccc1 | 8.5 | 11.1 | 11.3
78 | O=C1C=C(Nc2ccccc2)c2ccccc2C1=O | 12.3 | 21.2 | 13.7
79 | Cc1ccc(-c2cc(C(F)F)n3ncc(C(=O)Nc4c(C)nn(Cc5ccccc5Cl)c4C)c3n2)cc1 | 2.16 | > 100 | 24.4
80 | N#CCc1ccc(NC(=O)/C=C/c2ccc([N+](=O)[O-])o2)cc1 | < 0.391 | < 0.391 | 0.277
81 | N#CC1=C(c2ccccc2)/C(=C/c2ccccc2)OC1=O | 17.6 | > 100 | 15.4
82 | Cc1ccc2c(c1)Cc1nc3ccccc3nc1-2 | 83.5 | > 100 | > 40
83 | COc1cc(OC)c2c(-c3ccccc3)cc(=O)oc2c1C(CCN1CCCCC1)c1ccc2c(c1)OCO2 (stereo unspecified) | 9.18 | 12.8 | 13.6
84 | O=C(Cn1nc(CNc2ccc(Cl)cc2)[n+]2c1CCCCC2)c1ccc(Br)cc1 | 4.63 | 7.74 | 
